Experimental data as given in ChEMBL document CHEMBL5724914, “Linking interpersonal differences in gut microbiota composition and drug biotransformation activity” (2024).

How the values were obtained:
[1] = (§1) The drug is tested on Z-021 corresponding to metagenome with ENA study accession number: PRJEB37062 and ENA sample accession number: ERS12561820 for biotransformation under anaerobic condition. The drug concentrations were measured over 9 timepoints collected between 0 and 24 hours of incubation by liquid-chromatography-coupled mass spectrometry (LC–MS); conditions: 2 µM
[2] = (§2) The drug is tested on Z-017 corresponding to mouse gut metagenome with ENA study accession number: PRJEB37062 and ENA sample accession number: ERS12561816 for biotransformation under anaerobic condition. The drug concentrations were measured over 9 timepoints collected between 0 and 24 hours of incubation by liquid-chromatography-coupled mass spectrometry (LC–MS); conditions: 2 µM
[3] = as §1, with “Z-012” for “Z-021”, “ERS12561812” for “ERS12561820”; conditions: 2 µM
[4] = as §2, with “Z-007” for “Z-017”, “rat” for “mouse”, “ERS12561807” for “ERS12561816”; conditions: 2 µM
[5] = as §2, with “Z-002” for “Z-017”, “rabbit” for “mouse”, “ERS12561802” for “ERS12561816”; conditions: 2 µM
[6] = as §2, with “Z-001” for “Z-017”, “ERS12561801” for “ERS12561816”; conditions: 2 µM
[7] = as §2, with “WLS-350” for “Z-017”, “human” for “mouse”, “ERS12561789” for “ERS12561816”; conditions: 2 µM
[8] = as §2, with “WLS-170” for “Z-017”, “human” for “mouse”, “ERS12561762” for “ERS12561816”; conditions: 2 µM
[9] = as §2, with “WLS-052” for “Z-017”, “human” for “mouse”, “ERS12561747” for “ERS12561816”; conditions: 2 µM
[10] = as §2, with “WLS-027” for “Z-017”, “human” for “mouse”, “ERS12561744” for “ERS12561816”; conditions: 2 µM
[11] = human gut metagenome, 24 h, 2 µM
[12] = human gut metagenome, 24 h, 2 µM; remark: listed apart in the source
[13] = human gut metagenome, 24 h, 2 µM; remark: listed apart in the source
[14] = human gut metagenome, 24 h, 2 µM; remark: listed apart in the source
[15] = human gut metagenome, 24 h, 2 µM; remark: listed apart in the source
[16] = human gut metagenome, 24 h, 2 µM; remark: listed apart in the source
[17] = human gut metagenome, 24 h, 2 µM; remark: listed apart in the source
[18] = human gut metagenome, 24 h, 2 µM; remark: listed apart in the source
[19] = human gut metagenome, 24 h, 2 µM; remark: listed apart in the source
[20] = human gut metagenome, 24 h, 2 µM; remark: listed apart in the source
Further: call rule not given here.

Bacterial Biotransformation [1]	Bacterial Biotransformation [2]	Bacterial Biotransformation [3]	Bacterial Biotransformation [4]	Bacterial Biotransformation [5]	Bacterial Biotransformation [6]	Bacterial Biotransformation [7]	Bacterial Biotransformation [8]	Bacterial Biotransformation [9]	Bacterial Biotransformation [10]	Bacterial Biotransformation [11]	Bacterial Biotransformation [12]	Bacterial Biotransformation [13]	Bacterial Biotransformation [14]	Bacterial Biotransformation [15]	Bacterial Biotransformation [16]	Bacterial Biotransformation [17]	Bacterial Biotransformation [18]	Bacterial Biotransformation [19]	Bacterial Biotransformation [20]	SMILES
Compound metabolized	Compound metabolized	Compound metabolized	Compound NOT metabolized	Compound metabolized	Compound NOT metabolized	Compound metabolized	Compound metabolized	Compound metabolized	Compound metabolized	Compound metabolized	Compound metabolized	Compound metabolized	Compound metabolized	Compound metabolized	Compound NOT metabolized	Compound metabolized	Compound NOT metabolized	–	–	COc1c2occc2cc2ccc(=O)oc12 [METHOXSALEN]
Compound metabolized	Compound NOT metabolized	–	–	–	Compound NOT metabolized	Compound metabolized	Compound NOT metabolized	Compound metabolized	Compound metabolized	Compound metabolized	Compound metabolized	Compound metabolized	Compound metabolized	Compound NOT metabolized	Compound metabolized	Compound metabolized	Compound NOT metabolized	Compound metabolized	Compound metabolized	Cc1nc2n(c(=O)c1CCN1CCC(c3noc4cc(F)ccc34)CC1)CCCC2O (centres undefined) [PALIPERIDONE]
Compound NOT metabolized	Compound NOT metabolized	Compound NOT metabolized	Compound NOT metabolized	Compound NOT metabolized	Compound NOT metabolized	Compound NOT metabolized	–	Compound NOT metabolized	Compound NOT metabolized	Compound NOT metabolized	Compound NOT metabolized	Compound NOT metabolized	Compound NOT metabolized	Compound NOT metabolized	Compound NOT metabolized	–	–	Compound NOT metabolized	Compound NOT metabolized	CN(C)CCc1c[nH]c2ccc(Cn3cncn3)cc12.O=C(O)c1ccccc1 [RIZATRIPTAN BENZOATE]
Compound NOT metabolized	Compound metabolized	Compound metabolized	Compound metabolized	Compound NOT metabolized	Compound metabolized	Compound NOT metabolized	Compound NOT metabolized	Compound metabolized	Compound metabolized	Compound NOT metabolized	Compound metabolized	Compound metabolized	Compound metabolized	Compound NOT metabolized	Compound NOT metabolized	Compound NOT metabolized	Compound NOT metabolized	–	Compound metabolized	COc1ccc2[nH]c([S+]([O-])Cc3ncc(C)c(OC)c3C)nc2n1 (centres undefined) [TENATOPRAZOLE]

The next lines start with the compound.

SMILES	Bacterial Biotransformation [1]	Bacterial Biotransformation [2]	Bacterial Biotransformation [3]	Bacterial Biotransformation [4]	Bacterial Biotransformation [5]	Bacterial Biotransformation [6]	Bacterial Biotransformation [7]	Bacterial Biotransformation [8]	Bacterial Biotransformation [9]	Bacterial Biotransformation [10]	Bacterial Biotransformation [11]	Bacterial Biotransformation [12]	Bacterial Biotransformation [13]	Bacterial Biotransformation [14]	Bacterial Biotransformation [15]	Bacterial Biotransformation [16]	Bacterial Biotransformation [17]	Bacterial Biotransformation [18]	Bacterial Biotransformation [19]	Bacterial Biotransformation [20]
CCOC(=O)[C@H](CCc1ccccc1)N[C@@H](C)C(=O)N1[C@H](C(=O)O)C[C@@H]2CCC[C@@H]21	Compound metabolized	Compound NOT metabolized	Compound metabolized	Compound metabolized	Compound metabolized	Compound NOT metabolized	Compound metabolized	Compound metabolized	Compound metabolized	Compound metabolized	Compound metabolized	Compound metabolized	Compound metabolized	Compound metabolized	Compound metabolized	Compound metabolized	Compound metabolized	Compound NOT metabolized	Compound metabolized	Compound metabolized
CCN(CC)CCNC(C(=O)OCCC(C)C)c1ccccc1.Cl.Cl (centres undefined)	Compound metabolized	Compound NOT metabolized	Compound NOT metabolized	Compound NOT metabolized	Compound metabolized	Compound metabolized	Compound metabolized	Compound metabolized	Compound NOT metabolized	Compound metabolized	Compound metabolized	Compound metabolized	Compound metabolized	Compound metabolized	Compound metabolized	Compound metabolized	Compound metabolized	Compound NOT metabolized	Compound metabolized	Compound metabolized
CCCC(=O)Nc1ccc(OCC(O)CNC(C)C)c(C(C)=O)c1 (centres undefined) [ACEBUTOLOL]	Compound metabolized	Compound NOT metabolized	Compound NOT metabolized	Compound NOT metabolized	Compound metabolized	Compound NOT metabolized	Compound metabolized	Compound metabolized	Compound NOT metabolized	Compound NOT metabolized	Compound NOT metabolized	Compound metabolized	Compound metabolized	Compound metabolized	Compound NOT metabolized	Compound NOT metabolized	Compound metabolized	Compound NOT metabolized	Compound metabolized	Compound metabolized
CN1CCc2cccc3c2[C@H]1Cc1ccc(O)c(O)c1-3 [APOMORPHINE]	Compound NOT metabolized	Compound NOT metabolized	–	–	Compound NOT metabolized	Compound NOT metabolized	Compound NOT metabolized	Compound NOT metabolized	–	–	Compound NOT metabolized	Compound NOT metabolized	Compound NOT metabolized	Compound NOT metabolized	–	Compound NOT metabolized	Compound NOT metabolized	Compound NOT metabolized	Compound NOT metabolized	Compound NOT metabolized
Cc1nc2n(c(=O)c1CCN1CCC(c3noc4cc(F)ccc34)CC1)CCCC2 [RISPERIDONE]	Compound metabolized	Compound metabolized	Compound metabolized	Compound metabolized	Compound metabolized	Compound metabolized	–	Compound metabolized	Compound metabolized	Compound metabolized	Compound metabolized	Compound metabolized	Compound metabolized	Compound metabolized	–	Compound metabolized	Compound metabolized	Compound NOT metabolized	Compound metabolized	Compound NOT metabolized
